This note sets out measurements from patent publication US4426390A, “Novel β-lactam compounds, process for producing thereof, and use thereof as medicines” (Sanraku-Ocean Co., Ltd., priority 1980, dated 1984).

≈ marks a conversion by molar mass, not a printed value.

For series [1], the system named is ddY mice. The conditions noted are these: mouse, in vivo, ip, 500 mg/kg.
The nature of series [2]: Stability (half life) in phosphate buffers of various pH. In kind it is physicochemical. The conditions noted are these: for half-life: 28° C. As to the method: By adding 2% sodium hydroxide or 10% hydrochloric acid, the pH of 0.05 M phosphate buffer is adjusted to 4, 5, 6, 7, 8 and 9, respectively, and distributed into test tubes in an amount of 3 ml. Concentrated solution of antibiotic OA-6129A (0.05 ml) is added to each test tube and allowed to stand in a thermostatic chamber of 28° C. The time course curve of the concentration decrease of antibiotic OA-6129A is drawn by spectrophotometric measurement at 300 nm, from which the half life of the antibiotic at the indicated pH is calculated. As a control, antibiotic PS-5, a carbapenem compound described in the above-cited reference is simultaneously tested.

Series [3] deals with Alcaligenes Faecolis A1. Kind of series: MIC by agar dilution method. The class given is cell-based. To be noted: Alcaligenes Faecolis A1; agar dilution, 37° C., 18 hours; read-out: MIC. As to the method:
(§1) The MIC is measured by an agar dilution method based on the standard method of the Japanese Society of Chemotherapy (Japanese Society of Chemotherapy: The Revised Method of Determination of MIC Values, Chemotherapy 22, 1126-1128, […]). Specifically, the antibiotic is serially diluted with a 1/50 M phosphate buffer at a pH of 7.3 to prepare a twofold dilution series. One milliliter of each dilution and 9 ml of an agar medium (Heart Infusion Agar; a product of Difco Laboratories) are mixed and allowed to solidify in a Petri dish having a diameter of 9 cm. One loopful of the stock culture of the test microbe is inoculated in trypto-soy buillon (a product of Eiken Kagaku Co., Ltd.) and incubated at 37° C. for 18 hours. The resulting culture broth is diluted to a concentration of about 10^6 cells/ml with physiological saline and inoculated on the agar plate by means of a microplanter.

Series [4] has as its system Bacillus subtillis ATCC 6633. Kind of series: MIC by agar dilution method. In kind it is cell-based. The conditions noted are these: ATCC6633; Bacillus subtillis ATCC 6633; agar dilution, 37° C., 18 hours; read-out: MIC. As to the method:
as §1
For orientation: In agar dilution the substance is mixed into plates at graded concentrations.

Series [5] has as its system Citrobacter Freundii GN346. Kind of series: MIC by agar dilution method. The class given is cell-based. The conditions noted are these: 37° C., 18 hours. As to the method:
as §1

Series [6] has as its system Comamonas terrigena B996. The experiment in a line: MIC by agar dilution method. The conditions noted are these: 37° C., 18 hours. In kind it is cell-based. On the procedure: as §1
The subject of series [7] is E. coli RGN823. Kind of series: MIC by agar dilution method. The class given is cell-based. To be noted: Escherichia coli, 37° C., 18 hours. On the procedure: as §1
The test system of series [8] is Ent. cloacae 45. Kind of series: MIC by agar dilution method. In kind it is cell-based. The conditions noted are these: Enterobacter cloacae, 37° C., 18 hours. As to the method: as §1
Series [9] relates to Ent. sp. E8. Kind of series: MIC by agar dilution method. The class given is cell-based. To be noted: Ent. sp. E8; agar dilution, 37° C., 18 hours; read-out: MIC. As to the method:
as §1

Series [10] deals with Enterobacter aerogenes E19. Kind of series: MIC by agar dilution method. In kind it is cell-based. To be noted: Klebsiella aerogenes, 37° C., 18 hours. As to the method:
as §1

The subject of series [11] is Escherichia coli K-12. The experiment in a line: MIC by agar dilution method. The class given is cell-based. To be noted: K12; Escherichia coli K-12; agar dilution, 37° C., 18 hours; read-out: MIC. As to the method:
as §1

Series [12] has as its system Klebsiella pneumoniae K13. The experiment in a line: MIC by agar dilution method. The class given is cell-based. The conditions noted are these: 37° C., 18 hours. On the procedure:
as §1

The test system of series [13] is P. rettgeri P7. The experiment in a line: MIC by agar dilution method. To be noted: Providencia rettgeri; P. rettgeri P7; agar dilution, 37° C., 18 hours; read-out: MIC. The class given is cell-based. On the procedure:
as §1

Series [14] has as its system P. vulgaris GN76. Kind of series: MIC by agar dilution method. The class given is cell-based. To be noted: Proteus vulgaris, 37° C., 18 hours. On the procedure:
as §1

The test system of series [15] is Proteus mirabilis P6. Kind of series: MIC by agar dilution method. In kind it is cell-based. To be noted: Proteus mirabilis P6; agar dilution, 37° C., 18 hours; read-out: MIC. As to the method: as §1
In series [16] the test system is Providencia sp. P8. The experiment in a line: MIC by agar dilution method. In kind it is cell-based. To be noted: Providencia sp. P8; agar dilution, 37° C., 18 hours; read-out: MIC. On the procedure: as §1
For series [17], the system named is Ps. aeruginosa NCTC10490. The experiment in a line: MIC by agar dilution method. In kind it is cell-based. The conditions noted are these: Pseudomonas aeruginosa, 37° C., 18 hours. As to the method:
as §1

The subject of series [18] is Pseudomonas aenginosa IFO3445. The experiment in a line: MIC by agar dilution method. The conditions noted are these: 37° C., 18 hours. The class given is cell-based. On the procedure:
as §1

In series [19] the test system is S. aureus Russell. Kind of series: MIC by agar dilution method. The class given is cell-based. The conditions noted are these: Staphylococcus aureus; S. aureus Russell; agar dilution, 37° C., 18 hours; read-out: MIC. As to the method: as §1
The subject of series [20] is S. aureus Smith. Kind of series: MIC by agar dilution method. The class given is cell-based. To be noted: Staphylococcus aureus, 37° C., 18 hours. On the procedure:
as §1

Series [21] concerns S. epidermidis. Kind of series: MIC by agar dilution method. The conditions noted are these: Staphylococcus epidermidis, 37° C., 18 hours. In kind it is cell-based. On the procedure: as §1
The subject of series [22] is Sarcina lutea S19. Kind of series: MIC by agar dilution method. To be noted: Micrococcus luteus, 37° C., 18 hours. In kind it is cell-based. As to the method: as §1
The test system of series [23] is Ser. marcesceus T55. Kind of series: MIC by agar dilution method. In kind it is cell-based. The conditions noted are these: 37° C., 18 hours. As to the method: as §1
Series [24] deals with Serratia marcesceus S18. Kind of series: MIC by agar dilution method. In kind it is cell-based. To be noted: 37° C., 18 hours. As to the method: as §1
For series [25], the system named is Staphylococcus aureus 209P. Kind of series: MIC by agar dilution method. In kind it is cell-based. The conditions noted are these: 37° C., 18 hours. As to the method: as §1
Series [26] concerns Citrobacter Freundii GN346. The experiment in a line: Disc assay of synergy, inhibition zones. In kind it is cell-based. To be noted: disc OA-6129B2, PS-5 100 μg/ml, CER, PCG 1000 μg/ml. On the procedure:
(§2) (B) The presence or absence of synergy is visually checked by the size difference in inhibitory zones observed when the test drug is disc-assayedon an agar plate of a detector microbe and on an agar plate of the detector containing cephaloridine or benzylpenicillin, respectively.
(§3) One loopful of the stock culture of a test organism is inoculated in heat infusion broth (5 ml/tube), and grown at 37° C. for 18 hours. The culture broth is diluted to a final concentration of about 10^5 cells/ml in nutrient agar with or without benzyl penicillin or cephaloridine, and plated in a Petri dish with a diameter of 9 cm, as shown below.
(§4) Using the above-prepared agar plates, antibiotic PS-5 (100 μg/ml), antibiotic OA-6129B2 (5,6-trans OA-6129B) (100 μg/ml), benzylpenicillin (1000 μg/ml) and cephaloridine (1000 μg/ml) are subjected to disc assay.

Series [27] has as its system Enterobacter cloacac 45. Kind of series: Disc assay of synergy, inhibition zones. The class given is cell-based. The conditions noted are these: disc OA-6129B2, PS-5 100 μg/ml, CER, PCG 1000 μg/ml. As to the method:
as §2, §3, §4

The test system of series [28] is Proteus vulgaris GN76. The experiment in a line: Disc assay of synergy, inhibition zones. The conditions noted are these: disc OA-6129B2, PS-5 100 μg/ml, CER, PCG 1000 μg/ml. In kind it is cell-based. As to the method: as §2, §3, §4
For series [29], the system named is Serratia marccscens T55. Kind of series: Disc assay of synergy, inhibition zones. The class given is cell-based. To be noted: disc OA-6129B2, PS-5 100 μg/ml, CER, PCG 1000 μg/ml. As to the method: as §2, §3, §4

`CC(O)C1C(=O)N2C(C(=O)O)=C(SCCNC(=O)CCNC(=O)C(O)C(C)(C)CO)CC12` (stereo not shown) [OA-6129B]: the acute toxicity entry in series [1] is reported as “no acute toxicity is observed”. In addition, the “stability relative to OA-6129A” value in series [2] (phosphate buffer, pH 4 to 9, 28° C.) is “substantially the same stability as antibiotic OA-6129A”.
The term MIC denotes the smallest concentration in the dilution series that meets the test's criterion for growth inhibition. A word on the half-life: it is how long it takes for the measured level to halve. The low end stands for fast loss, the high end for slow loss. For `CCC1C(=O)N2C(C(=O)O)=C(SCCNC(C)=O)CC12` (stereo not shown) [PS-5, reference compound], the MIC in [3] stood at 0.78 µg/mL (≈ 2.61 µM); in series [4], 0.1 µg/mL (≈ 0.335 µM); in series [5], 3.13 µg/mL (≈ 10.5 µM); in [6], 0.012 µg/mL (≈ 0.0402 µM); in series [7], 3.13 µg/mL (≈ 10.5 µM); in series [8], 3.13 µg/mL (≈ 10.5 µM). Besides, the MIC in series [9] amounted to 3.13 µg/mL (≈ 10.5 µM); in series [10], 3.13 µg/mL (≈ 10.5 µM); in series [11], 1.56 µg/mL (≈ 5.23 µM); in series [12] it was 3.13 µg/mL (≈ 10.5 µM); in series [13] it was 3.13 µg/mL (≈ 10.5 µM); in series [14] it was 6.25 µg/mL (≈ 20.9 µM). The MIC in series [15] turned out to be 6.25 µg/mL (≈ 20.9 µM); in series [16], 3.13 µg/mL (≈ 10.5 µM); in series [17], 12.5 µg/mL (≈ 41.9 µM); in series [18], 12.5 µg/mL (≈ 41.9 µM); in series [19] it was 0.2 µg/mL (≈ 0.67 µM); in [20], 0.2 µg/mL (≈ 0.67 µM). Further, the MIC was 0.2 µg/mL (≈ 0.67 µM) in series [21]; 0.1 µg/mL (≈ 0.335 µM) in series [22]; 6.25 µg/mL (≈ 20.9 µM) in series [23]; 3.13 µg/mL (≈ 10.5 µM) in series [24]; 0.024 µg/mL (≈ 0.0804 µM) in series [25]. Moreover, the zone of inhibition at 100 µg/mL turned out to be 22.5 mm in [26] (Citrobacter freundii, GN346, plate: None, read-out: diameter of inhibition zones); 20 mm in series [27] (Enterobacter, 45, plate: None, read-out: diameter of inhibition zones); 17.5 mm in [28] (Proteus vulgaris, GN76, plate: None, read-out: diameter of inhibition zones); 23.5 mm in series [29] (Serratia, T55, plate: None, read-out: diameter of inhibition zones). Further, the “diameter of inhibition zones” value in [26] (plate: + CER) amounted to 24.0 mm; in series [26] (plate: + PCG) it was 23.5 mm; in [27] (plate: + CER) it was 22.5 mm; in series [27] (plate: + PCG), 21.0 mm; in series [28] (plate: + CER) it was 23.5 mm; in [28] (plate: + PCG) it was 25.0 mm. Further, the “diameter of inhibition zones” value in series [29] (plate: + CER) worked out at 34.0 mm; in series [29] (plate: + PCG, reduced to 5 μg/ml (final concentration)), 24.0 mm. Besides, the half-life is 0.2 h in [2] (pH 4, 0.05 M phosphate buffer); 3.43 h in [2] (pH 5, 0.05 M phosphate buffer); 13.2 h in series [2] (pH 6, 0.05 M phosphate buffer); 38.2 h in series [2] (pH 7, 0.05 M phosphate buffer); 78 h in [2] (pH 8, 0.05 M phosphate buffer); 36.2 h in [2] (pH 9, 0.05 M phosphate buffer).
